Source: patent US20040157772A1, “Use of a gatran for the manufacture of a medicament of the treatment of pulmonary fibrosis” (priority 2001, published 2004)

Tests used:
[1] = test system: bleomycin-induced lung fibrosis; assay: Bleomycin-induced lung fibrosis model in rats, inogatran by constant i.v. infusion; type: in vivo, Sprague Dawley rats
Method: Forty male Sprague Dawley rats weighing 200 g were kept in cages (2 rats/cage) covered with filter tops to prevent spreading of carcinogenic metabolites of bleomycin. The rats had free access to food and water.
The rats were split into four groups:
Group 1—8 rats—received 0.9% NaCl (1 mL/kg) as a control (only 6 animals were ultimately used, the other 2 were used for different purposes).
Group 2—8 rats—received induction by way of an i.t. 2.5 mg/kg (1 mL/kg) bleomycin instillation (a 15 IE injection solution (Lundbeck)).
Group 3—12 rats—received bleomycin induction as above, plus a constant i.v. infusion of 0.9% NaCl solution (5.0 μL/h) (only 8 animals were ultimately used, the other 4 were used for different purposes).
(§1) Group 4—12 rats—received bleomycin induction as above, plus a constant i.v. infusion of inogatran (5 μmol/kg/h) loaded in Alzet® 2ML2 pumps at a concentration of 200 μmol/mL (88 mg/mL) in 0.9% NaCl (only 8 animals were ultimately used, the other 4 were used for different purposes).
The rats were anaesthetised by way of an i.p. injection (2 mL/kg) of Ketalar™ (50 mg/mL ketamin; Parke-Davis)/Rompun.vet™ (20 mg/mL xylazin; Bayer) (1.75 mL/0.35 mL). A pre-filled minipump connected to a PE60 catheter was inserted into the jugularis vein. A s.c. pocket was created on the back of the animal. The pump was led into this pocket. The incision on the neck was closed with wound clips.
The pre-filled pump with catheter was incubated in 37° C. 0.9% NaCl overnight before implantation to enable immediate pumping after surgery. This was to avoid clotting in the catheter.
After 14 days, all rats received an overdose of pentobarbital (i.p.). The rats were weighed and the lung was dissected and weighed. One lobe was placed in Histofix™ (buffered 5% formaldehyde solution) for histological examination. […]
The following parameters were measured: […]
Total collagen (quantification of hydroxyproline according to the procedure described in Stegemann-Stadler et al, Determinations of Hydroxyproline, Clin. Chim. Acta (1967) 18, 267-273).

[2] = Concentration of inogatran in plasma on day 6; type: in vivo; conditions: Sprague-Dawley, rat, iv, rats, constant i.v. infusion 5 μmol/kg/h from Alzet pumps, day 6 after implantation, approximately
Method: as §1
Plasma and bronchiolar lavage fluid (BAL) were collected from four rats in groups 3 and 4, and from two rats in group 1, six days after induction, for quantification of plasma concentration of compound and thrombin activity in BAL.
Concentration of inogatran in plasma on day 6.

Compound: N=C(N)NCCCNC(=O)[C@@H]1CCCCN1C(=O)[C@@H](CC1CCCCC1)NCC(=O)O [inogatran, HOOC—CH2-(R)Cha-Pic-Nag-H]
- hydroxyproline content in the lungs (total collagen) ([1]; bleomycin i.t. 2.5 mg/kg, constant i.v. infusion 5 μmol/kg/h, day 14, vehicle control 2.34±0.14, P=0.0008): 1.37±0.10 μg/mg tissue
- inhibition of collagen deposition ([1]; bleomycin-induced rats, constant i.v. infusion, day 14): almost complete inhibition
- effect on total lung weight (wet-weight) ([1]; bleomycin-induced rats, inogatran 4-5 μmol/kg/hr): no effect
- concentration at 6 day [2]: 2 to 7 µM
